Measured values published in PMC6775132, “Systematic identification of metabolites controlling gene expression in E. coli” (Nature Communications, 2019).

Experiments:
Assay in all cases: microscale thermophoresis, labelled His-tagged protein
Format in all cases: binding
Details in all cases: 50 mM NaH2PO4, 500 mM NaCl, pH 5.7, 21 °C; 50 nM protein
[1] = biological target: T1, ArgR (Escherichia coli, UniProt P0A6D0)
T1 construct: labelled through His-tag (RED-tris-NTA)
T1 sequence (P0A6D0 1-156): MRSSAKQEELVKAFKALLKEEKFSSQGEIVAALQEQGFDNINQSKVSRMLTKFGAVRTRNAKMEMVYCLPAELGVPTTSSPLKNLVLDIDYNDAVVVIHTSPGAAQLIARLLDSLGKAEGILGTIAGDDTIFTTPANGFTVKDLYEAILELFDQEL

[2] = biological target: T2, DhaR (Escherichia coli, UniProt P76016)
T2 construct: labelled through His-tag (RED-tris-NTA)
T2 sequence (P76016 1-639): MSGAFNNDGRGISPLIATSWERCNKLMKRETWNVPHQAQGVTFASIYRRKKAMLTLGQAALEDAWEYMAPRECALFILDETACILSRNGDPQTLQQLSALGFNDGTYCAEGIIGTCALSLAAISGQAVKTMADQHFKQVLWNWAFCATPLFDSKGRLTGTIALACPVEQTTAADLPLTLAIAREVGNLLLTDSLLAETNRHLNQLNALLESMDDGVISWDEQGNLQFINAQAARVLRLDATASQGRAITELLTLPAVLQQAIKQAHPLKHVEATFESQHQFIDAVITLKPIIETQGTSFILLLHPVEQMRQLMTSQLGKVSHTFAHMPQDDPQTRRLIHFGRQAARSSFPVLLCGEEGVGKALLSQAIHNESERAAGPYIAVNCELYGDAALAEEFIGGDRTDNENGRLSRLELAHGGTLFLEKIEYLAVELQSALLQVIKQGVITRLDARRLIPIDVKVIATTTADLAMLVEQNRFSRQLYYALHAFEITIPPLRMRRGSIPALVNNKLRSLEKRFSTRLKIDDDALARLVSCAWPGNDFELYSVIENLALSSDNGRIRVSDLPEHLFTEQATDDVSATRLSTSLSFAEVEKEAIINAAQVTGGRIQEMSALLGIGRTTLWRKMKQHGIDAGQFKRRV

[3] = biological target: T3, SgrR (Escherichia coli, UniProt P33595)
T3 construct: labelled through His-tag (RED-tris-NTA)
T3 sequence (P33595 1-551): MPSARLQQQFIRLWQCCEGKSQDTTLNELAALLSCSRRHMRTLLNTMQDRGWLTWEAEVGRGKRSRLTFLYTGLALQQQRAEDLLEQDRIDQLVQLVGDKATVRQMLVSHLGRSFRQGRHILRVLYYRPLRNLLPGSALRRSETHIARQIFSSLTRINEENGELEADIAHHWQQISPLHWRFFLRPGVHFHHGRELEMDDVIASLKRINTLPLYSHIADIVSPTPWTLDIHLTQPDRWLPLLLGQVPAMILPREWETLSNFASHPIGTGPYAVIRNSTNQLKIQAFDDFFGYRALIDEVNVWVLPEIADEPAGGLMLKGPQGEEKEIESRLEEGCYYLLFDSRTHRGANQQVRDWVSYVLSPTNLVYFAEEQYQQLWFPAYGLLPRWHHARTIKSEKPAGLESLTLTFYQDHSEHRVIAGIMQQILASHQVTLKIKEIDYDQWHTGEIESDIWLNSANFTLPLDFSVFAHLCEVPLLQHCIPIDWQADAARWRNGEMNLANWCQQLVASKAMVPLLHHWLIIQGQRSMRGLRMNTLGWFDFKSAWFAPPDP

[4] = biological target: T4, TrpR (Escherichia coli, UniProt P0A881)
T4 construct: labelled through His-tag (RED-tris-NTA)

[5] = biological target: T5, SoxR (Escherichia coli, UniProt P0ACS2)
T5 construct: labelled through His-tag (RED-tris-NTA)
T5 sequence (P0ACS2 1-154): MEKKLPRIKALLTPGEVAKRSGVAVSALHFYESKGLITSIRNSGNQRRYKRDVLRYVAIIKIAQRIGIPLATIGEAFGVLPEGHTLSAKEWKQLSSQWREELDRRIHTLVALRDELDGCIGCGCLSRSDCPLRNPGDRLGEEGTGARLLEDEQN

Structure (SMILES): N=C(N)NCCC[C@H](N)C(=O)O [arg, arginine]
- KD [1]: also confirmed the known arginine–ArgR and tryptophan–TrpR interactions

Structure (SMILES): O=C(CO)COP(=O)(O)O [dhap, dihydroxyacetone phosphate]
- KD [2]: DhaR binds the glycolysis intermediate dihydroxyacetone phosphate (DHAP)

Structure (SMILES): N[C@@H](CCC(=O)O)C(=O)O [glu, glutamate]
- KD [3]: SgrR binds glutamate

Structure (SMILES): N[C@@H](Cc1c[nH]c2ccccc12)C(=O)O [trp, tryptophan]
- KD [4]: also confirmed the known arginine–ArgR and tryptophan–TrpR interactions
- KD [5]: In vitro MST assays validated that SoxR binds tryptophan
